According to ChEMBL document CHEMBL1153024, “Antibacterial diterpenes from Plectranthus ernstii” (2009):
Values after ≈ are worked out from the molar mass of the structure shown. Active and inactive are the calls of the source. The calls are words filed in the database; no cut-off is given here.

Columns and labels:
[1] = tested on: Mycolicibacterium smegmatis; assay: Antibacterial activity against Mycobacterium smegmatis after 72 hrs; assay type: functional
[2] = tested on: Staphylococcus aureus; assay: Antibacterial activity against Staphylococcus aureus RN4220 overexpressing MsrA at 128 ug/ml after 24 hrs; assay type: functional, organism-based
[3] = tested on: Mycolicibacterium fortuitum; assay: Antibacterial activity against Mycobacterium fortuitum after 72 hrs; assay type: functional
[4] = tested on: Staphylococcus aureus; assay: Antibacterial activity against Staphylococcus aureus EMRSA-15 at 128 ug/ml after 24 hrs; assay type: functional, organism-based
[5] = tested on: Staphylococcus aureus; assay: Antibacterial activity against Staphylococcus aureus XU-212 overexpressing TetK, mecA at 128 ug/ml after 24 hrs; assay type: functional, organism-based
[6] = tested on: Staphylococcus aureus; assay: Antibacterial activity against Staphylococcus aureus ATCC 25923 at 128 ug/ml after 24 hrs; assay type: functional, organism-based
[7] = tested on: Staphylococcus aureus; assay: Antibacterial activity against Staphylococcus aureus 1199B overexpressing NorA at 128 ug/ml after 24 hrs; assay type: functional, organism-based
[8] = tested on: Mycolicibacterium phlei; assay: Antibacterial activity against Mycobacterium phlei after 72 hrs; assay type: functional
[9] = tested on: Staphylococcus aureus; assay: Antibacterial activity against Staphylococcus aureus EMRSA-15 after 24 hrs; assay type: functional; conditions: EMRSA-15, 24 h
[10] = tested on: Staphylococcus aureus; assay: Antibacterial activity against Staphylococcus aureus RN4220 overexpressing MsrA after 24 hrs; assay type: functional; conditions: RN4220, 24 h
[11] = tested on: Staphylococcus aureus; assay: Antibacterial activity against Staphylococcus aureus 1199B overexpressing NorA after 24 hrs; assay type: functional
[12] = tested on: Staphylococcus aureus; assay: Antibacterial activity against Staphylococcus aureus XU-212 overexpressing TetK, mecA after 24 hrs; assay type: functional; conditions: XU-212, 24 h
[13] = tested on: Staphylococcus aureus; assay: Antibacterial activity against Staphylococcus aureus ATCC 25923 after 24 hrs; assay type: functional; conditions: ATCC 25923, 24 h

| Structure (SMILES) | MIC [1] [µg/mL] | MIC [2] | MIC [3] [µg/mL] | MIC [4] | MIC [5] | MIC [6] | MIC [7] | MIC [8] [µg/mL] | MIC [9] [µg/mL] | MIC [10] [µg/mL] | MIC [11] [µg/mL] | MIC [12] [µg/mL] | MIC [13] [µg/mL] |
| --- | --- | --- | --- | --- | --- | --- | --- | --- | --- | --- | --- | --- | --- |
| C=C[C@@]1(C)C[C@H](O)[C@@H]2[C@@]3(C)[C@H](O)CCC(C)(C)[C@@H]3CC[C@@]2(C)O1 | 128 (≈ 397 µM) | inactive | 128 (≈ 397 µM) | inactive | inactive | inactive | inactive | 128 (≈ 397 µM) | – | – | – | – | – |
| CC1(C)CCC[C@]2(C)[C@H]3CC[C@](C)(C4CO4)C=C3C(=O)C[C@@H]12 (relative stereo) | 128 (≈ 423 µM) | inactive | 128 (≈ 423 µM) | inactive | inactive | inactive | inactive | 64 (≈ 212 µM) | – | – | – | – | – |
| CC1(C)CCC[C@]2(C)[C@H]3CC[C@](C)(C4CO4)C=C3[C@H](O)C[C@@H]12 (relative stereo) | 16 (≈ 52.5 µM) | – | 16 (≈ 52.5 µM) | – | – | – | – | 8 (≈ 26.3 µM) | 32 (≈ 105 µM) | 32 (≈ 105 µM) | 32 (≈ 105 µM) | 32 (≈ 105 µM) | 32 (≈ 105 µM) |
| CC[C@H]1OC(=O)[C@H](C)[C@@H](O[C@H]2C[C@@](C)(OC)[C@@H](O)[C@H](C)O2)[C@H](C)[C@@H](O[C@@H]2O[C@H](C)C[C@H](N(C)C)[C@H]2O)[C@](C)(O)C[C@@H](C)C(=O)[C@H](C)[C@@H](O)[C@]1(C)O [ERYTHROMYCIN] | – | – | – | – | – | – | – | – | – | 128 (≈ 174 µM) | – | – | – |
| CC[C@@H](CO)NCCN[C@@H](CC)CO [ETHAMBUTOL] | 0.5 (≈ 2.45 µM) | – | 4 (≈ 19.6 µM) | – | – | – | – | 2 (≈ 9.79 µM) | – | – | – | – | – |
| CCn1cc(C(=O)O)c(=O)c2cc(F)c(N3CCNCC3)cc21 [NORFLOXACIN] | – | – | – | – | – | – | – | – | 2 (≈ 6.26 µM) | – | 32 (≈ 100 µM) | – | 0.5 (≈ 1.57 µM) |
| CN(C)[C@@H]1C(O)=C(C(N)=O)C(=O)[C@@]2(O)C(O)=C3C(=O)c4c(O)cccc4[C@@](C)(O)[C@H]3C[C@@H]12 [TETRACYCLINE] | – | – | – | – | – | – | – | – | – | – | – | 128 (≈ 288 µM) | – |
